Data reported in the Deep4Chem optical property database.
Blank lines part the entries; values can stand above or below the molecule they belong to.

Assay: solvent given as SMILES

Compound: Cc1cc(-c2nc(-c3ccccc3)nc(-c3ccccc3)n2)ccc1-n1c2ccccc2c2cc3c(cc21)C1c2ccccc2C3c2ccccc21
- absorption maximum (in Cc1ccccc1): 364 nm

Compound: CC1(C)c2ccccc2N(c2cc(C#N)c(C#N)cc2N2c3ccccc3C(C)(C)c3ccccc32)c2ccccc21
- absorption maximum (in c1ccc2c(c1)c1ccccc1n2-c1ccc(-c2ccc(-n3c4ccccc4c4ccccc43)cc2)cc1): 494 nm

Compound: CN(C)c1ccc(C2=Cc3cc(Cl)nc[n+]3[B-](F)(F)O2)cc1
- absorption maximum (in C1CCOC1): 451 nm
- absorption maximum (in CC#N): 452 nm
- absorption maximum (in CCCCCC): 444 nm
- absorption maximum (in Cc1ccccc1): 453 nm
- absorption maximum (in ClC(Cl)Cl): 460 nm
- absorption maximum (in ClCCl): 459 nm

Compound: O=P1(c2ccccc2)c2cc(N3c4ccccc4Oc4ccccc43)ccc2-c2ccc(N3c4ccccc4Oc4ccccc43)cc21
- absorption maximum (in Cc1ccccc1): 418 nm

Compound: CC(=O)Nc1ccc(S(=O)(=O)O)c(/N=N/c2c(O)c3ccccc3n(C)c2=O)c1
- absorption maximum (in C1CCOC1): 435 nm
- absorption maximum (in CC(C)=O): 425 nm
- absorption maximum (in CCOC(C)=O): 434 nm
- absorption maximum (in CO): 423 nm
- absorption maximum (in CS(C)=O): 428 nm
- absorption maximum (in Cc1ccccc1): 437 nm
- absorption maximum (in ClCCl): 435 nm
- absorption maximum (in O): 417 nm

Compound: CC(C)(C)c1ccc2ccc3cc(-c4ccc5c(-c6ccc7c(ccc8ccc(C(C)(C)C)cc87)c6)cc6c7cc(-c8ccc9c(ccc%10ccc(C(C)(C)C)cc%109)c8)ccc7c(-c7ccc8c(ccc9ccc(C(C)(C)C)cc98)c7)cc6c5c4)ccc3c2c1
- absorption maximum (in ClCCl): 303 nm

Compound: c1ccc(-c2ccccc2)cc1
- absorption maximum (in C1CCCCC1): 254.13 nm
- absorption maximum (in C1COCCO1): 246 nm

Compound: Cc1nn(-c2ccccc2)c2c1c(=O)oc1ccc(-n3c4ccccc4c4cc(-n5c6ccccc6c6ccccc65)ccc43)cc12
- absorption maximum (in Cc1ccccc1): 342 nm

Compound: Cc1ccc(C2=C3C=CC([Te]c4ccccc4)=[N+]3[B-](F)(F)n3c([Te]c4ccccc4)ccc32)cc1
- absorption maximum (in C1CCOC1): 620 nm

Compound: COC(=O)C1=NNC(C(=O)OC)=C2c3ccccc3C(=O)c3ccccc3C12 (stereo unspecified)
- absorption maximum (in CC#N): 391 nm

Compound: CCC1=C(C)C(=O)n2c1cc1c(CCC(=O)O)c(C)c(C)n1c2=O
- absorption maximum (in CC#N): 416 nm
- absorption maximum (in CC(C)=O): 415 nm
- absorption maximum (in CO): 421 nm
- absorption maximum (in CS(C)=O): 421 nm
- absorption maximum (in ClC(Cl)Cl): 423 nm
- absorption maximum (in c1ccccc1): 419 nm

Compound: O=C1c2ccccc2C2=Cc3cc4c(cc3B(O)N12)OCO4
- absorption maximum (in CC#N): 392 nm
- absorption maximum (in CO): 394 nm
- absorption maximum (in CS(C)=O): 396 nm
- absorption maximum (in ClC(Cl)Cl): 397 nm

Compound: CC(C)(C)c1ccc2c(c1)c1cc(C(C)(C)C)ccc1n2-c1ccc(-c2ccc3c(c2)C(=O)c2ccc(-c4ccc(-n5c6ccc(C(C)(C)C)cc6c6cc(C(C)(C)C)ccc65)cc4)cc2C3=O)cc1
- absorption maximum (in Cc1ccccc1): 426 nm

Compound: CC1(C)C(/C=C/C2=C(c3ccc(C(=O)O)cc3)C(=C/C=C3/N(CCCS(=O)(=O)[O-])c4ccc5ccccc5c4C3(C)C)/CCC2)=[N+](CCCS(=O)(=O)[O-])c2ccc3ccccc3c21
- absorption maximum (in CO): 800 nm

Compound: CCCC1=Cc2nc1ccc1[nH]c(cc1CCC)c1nc(c(OC(C)=O)cc3[nH]c2cc3CCC)C(CCC)=C1
- absorption maximum (in Cc1ccccc1): 645 nm

Compound: CC(C)(C)OC(=O)NCCCC(=O)OCc1ccc2c3cccc4cccc(c5cccc1c52)c43
- absorption maximum (in CCO): 439 nm

Compound: CN1c2ccc(C(=O)c3ccccc3)cc2Sc2cc(C(=O)c3ccccc3)ccc21
- absorption maximum (in C1CCCCC1): 390 nm
- absorption maximum (in C1CCOC1): 402 nm
- absorption maximum (in CN(C)C=O): 407 nm
- absorption maximum (in Cc1ccccc1): 405 nm
- absorption maximum (in ClC(Cl)Cl): 407 nm
- absorption maximum (in ClCCl): 408 nm

Compound: ClP1(Cl)=NP(Cl)(Cl)=NP(Cl)(Oc2ccc3ccc4cccc5ccc2c3c45)=N1 (stereo unspecified)
- absorption maximum (in ClCCl): 343 nm

Compound: N#Cc1ccc(-n2c(-c3ccc(-c4ccc(N(c5ccccc5)c5ccccc5)cc4)s3)nc3c4ccccc4c4ccccc4c32)c2ccccc12
- absorption maximum (in ClCCl): 308 nm

Compound: Cc1ccc2c(c1)c1cc(Br)ccc1n2-c1c(C#N)c(-n2c3ccc(Br)cc3c3cc(Br)ccc32)c(-n2c3ccc(Br)cc3c3cc(Br)ccc32)c(C#N)c1-n1c2ccc(Br)cc2c2cc(Br)ccc21
- absorption maximum (in Cc1ccccc1): 339 nm

Compound: c1cc2c(C3SCCCS3)c3ccc(=[N+]4CCCCC4)cc-3oc2cc1N1CCCCC1
- absorption maximum (in CO): 583.65 nm

Compound: Fc1c(-n2c3ccccc3c3ccccc32)c(F)c(-n2c3ccccc3c3ccccc32)c(-c2nnc(-c3ccccc3)o2)c1-n1c2ccccc2c2ccccc21
- absorption maximum (in Cc1ccccc1): 345 nm

Compound: c1csc(-c2cnc(-c3cccs3)c3nonc23)c1
- absorption maximum (in C1CCCCC1): 461 nm
- absorption maximum (in CC(C)=O): 461 nm
- absorption maximum (in CCCCCC): 458 nm
- absorption maximum (in CCCO): 466 nm
- absorption maximum (in CCO): 460 nm
- absorption maximum (in CCOCC): 462 nm
- absorption maximum (in CO): 460 nm
- absorption maximum (in Cc1ccccc1): 465 nm
- absorption maximum (in ClC(Cl)(Cl)Cl): 465 nm
- absorption maximum (in ClC(Cl)Cl): 464 nm
- absorption maximum (in Nc1ccccc1): 474 nm
- absorption maximum (in O=[N+]([O-])c1ccccc1): 476 nm
- absorption maximum (in OCC(O)CO): 471 nm
- absorption maximum (in OCc1ccccc1): 473 nm
- absorption maximum (in c1ccc2ncccc2c1): 477 nm
- absorption maximum (in c1ccccc1): 465 nm
- absorption maximum (in c1ccncc1): 472 nm

Now from value to molecule:

- absorption maximum (in ClCCl): 639 nm
Compound: COc1c2ccccc2c(OC)c2c(C#C[Si](C(C)C)(C(C)C)C(C)C)c3cc4sccc4cc3c(C#C[Si](C(C)C)(C(C)C)C(C)C)c12

- absorption maximum (in CS(C)=O): 644 nm
Compound: COc1ccc(-c2c3nc(cc4ccc([nH]4)c(-c4ccc(OC)c(OCC(=O)O)c4)c4nc(cc5ccc2[nH]5)CC4)C=C3)cc1OCC(=O)O

- absorption maximum (in CC#N): 356 nm
Compound: CC(C)Oc1ccc(C#Cc2cc3ccccc3oc2=O)cc1

- absorption maximum (in C1CCCCC1): 364 nm
Compound: CCCC1(CCC)c2cc(-c3ccco3)ccc2-c2ccc(-c3ccco3)cc21

- absorption maximum (in ClCCl): 282 nm
Compound: CC1(C)c2ccccc2N(c2ccc3c(c2)S(=O)(=O)c2cc(N4c5ccccc5C(C)(C)c5ccccc54)ccc2C3(C)C)c2ccccc21

- absorption maximum (in CC#N): 358 nm
- absorption maximum (in ClCCl): 361 nm
Compound: Cc1cc(O)c(C(=O)/C=C/c2ccc([N+](=O)[O-])cc2)c(=O)o1

- absorption maximum (in ClCCl): 325 nm
Compound: CCOC(=O)c1c(-c2cc3ccccc3oc2=O)nn(-c2cccc(Cl)c2)c1C(=O)OCC

- absorption maximum (in CO): 454 nm
Compound: O=C1C=C(Nc2ccc(F)c(F)c2)C(=O)c2ccccc21

- absorption maximum (in ClCCl): 339 nm
Compound: CC(C)(C)c1ccc(-c2cnc3cccc(-c4ccccc4)n23)cc1

- absorption maximum (in C1CCCCC1): 324 nm
- absorption maximum (in C1COCCO1): 324 nm
- absorption maximum (in CC#N): 326 nm
- absorption maximum (in CCO): 328 nm
- absorption maximum (in CCOC(C)=O): 325 nm
- absorption maximum (in CN(C)C=O): 326 nm
- absorption maximum (in CO): 328 nm
- absorption maximum (in c1ccccc1): 324 nm
Compound: Cc1cc2ccc(-c3cccc4cccc(-c5ccc6cc(C)c(=O)oc6c5)c34)cc2oc1=O

- absorption maximum (in ClCCl): 411 nm
Compound: N#Cc1ccccc1N1c2sc3ccccc3c2Sc2c1sc1ccccc21

- absorption maximum (in CCCCCC): 498 nm
Compound: Cc1cc(C)n2c1C=C1C(=O)N(C)C(c3ccc([N+](=O)[O-])cc3)=[N+]1[B-]2(F)F

- absorption maximum (in C1CCOC1): 362 nm
- absorption maximum (in CO): 366 nm
Compound: CCOC(=O)C1=CN(c2ccccc2)C=C(C(=O)OCC)C1c1ccccc1

- absorption maximum (in C1CCCCC1): 347 nm
- absorption maximum (in C1COCCO1): 350 nm
- absorption maximum (in CC#N): 348 nm
- absorption maximum (in CN(C)C=O): 353 nm
- absorption maximum (in CO): 352 nm
- absorption maximum (in O): 351 nm
- absorption maximum (in OCC(O)CO): 364 nm
- absorption maximum (in OCCO): 360 nm
Compound: O=C1NC(=O)/C(=C\c2ccccc2O)S1

- absorption maximum (in C1CCOC1): 425 nm
- absorption maximum (in CC#N): 409 nm
- absorption maximum (in CO): 371 nm
- absorption maximum (in ClCCl): 413 nm
Compound: Cc1s[c+](N2CCOCC2)sc1-c1cc(I)cc(I)c1[O-]

- absorption maximum (in CC#N): 565 nm
Compound: CC1=[N+]2C(=C(c3ccccc3)c3c4c(c(C)n3[B-]2(F)F)CCc2ccccc2-4)C2=C1CCc1ccccc12

- absorption maximum (in CCO): 369 nm
Compound: CCN(CC)c1cc(F)c(C(=O)c2cc(F)c(N(CC)CC)cc2F)cc1F

- absorption maximum (in ClC(Cl)Cl): 555 nm
Compound: F[B-]1(F)n2c(ccc2-c2ccccc2)C(c2ccc(I)cc2)=C2C=CC(c3ccccc3)=[N+]21

- absorption maximum (in CS(C)=O): 398 nm
Compound: COc1ccc(-c2cc(/C=C/c3ccc(N(c4ccccc4)c4ccccc4)cc3)c(C#N)c(N3CCCCC3)c2)cc1

- absorption maximum (in O): 351.77 nm
Compound: I[I-]I

- absorption maximum (in CN(C)C=O): 333 nm
Compound: Cc1ccc2[nH]c(-c3ccc(-c4ccc(-c5ccc(-c6nc7cc(C)ccc7[nH]6)cc5)c(C)c4)cc3)nc2c1

- absorption maximum (in ClCCl): 439 nm
Compound: c1ccc(-c2cc3cc4cccc5c(-c6ccccc6)cc6cc7cccc2c7c3c6c45)cc1

- absorption maximum (in CC#N): 478 nm
Compound: COC(=O)/C=C/c1sc(-c2ccc(N(C)C)s2)c(-c2cn(C)c3ccccc23)c1O

- absorption maximum (in CCOC(C)=O): 416 nm
Compound: CCN1CCN(c2ccc(/N=N/c3cc(C(=O)OC)cc(C(=O)OC)c3)cc2)CC1

- absorption maximum (in C1CCOC1): 565 nm
Compound: FC(F)(F)C(F)(F)C(F)(F)C1=NC2=C(Sc3ccccc3)C=C3c4cc(Sc5ccccc5)c5nc(C(F)(F)C(F)(F)C(F)(F)F)nc6c(Sc7ccccc7)cc(c4c56)=C4C=C(Sc5ccccc5)C(=N1)C2C34 (stereo unspecified)

- absorption maximum (in C1CCOC1): 355 nm
- absorption maximum (in CC#N): 355 nm
- absorption maximum (in CCCCCC): 354 nm
Compound: COC(C)CC1=N/C(=C\c2cccc(N(C)C)c2)C(=O)N1C (stereo unspecified)

- absorption maximum (in C1CCCCC1): 412 nm
- absorption maximum (in C1CCOC1): 394 nm
- absorption maximum (in C1COCCO1): 394 nm
- absorption maximum (in CC#N): 384 nm
- absorption maximum (in CCCCCC): 412 nm
- absorption maximum (in CO): 382 nm
- absorption maximum (in ClC(Cl)Cl): 369 nm
Compound: F[B-]1(F)n2c(-c3ccccc3)cnc2-c2cccc[n+]21

- absorption maximum (in ClC(Cl)Cl): 260 nm
Compound: c1cc2cc(c1)c1ccc3c(c1)c1cc(ccc1[C@]14OCCO[C@]31OCCO4)c1ccc3c(c1)c1cc(ccc1[C@]14OCCO[C@]31OCCO4)c1cccc2c1

- absorption maximum (in ClCCl): 354 nm
Compound: c1ccc(N(c2ccccc2)c2ccc3c(c2)-c2ccccc2C32c3ccccc3-n3c4ccccc4c4cccc2c43)cc1 (stereo unspecified)

- absorption maximum (in CCO): 390 nm
- absorption maximum (in ClCCl): 393 nm
Compound: c1ccc(-c2c3ccccc3c(-c3ncccn3)c3ccccc23)cc1

- absorption maximum (in CC#N): 481 nm
Compound: c1cc2oc3cccc4oc5cccc6oc(c1)c2[c+](c34)c65

- absorption maximum (in ClC(Cl)Cl): 381 nm
Compound: CC[Si](C)(C)c1cc2ccc3cccc4ccc(c1C(=O)NC(C)(C)C)c2c34

- absorption maximum (in ClCCl): 454 nm
Compound: CCCCCCn1c(=O)c2c3[nH]c4ccccc4oc3c3c(=O)n(CCCCCC)c(=O)c3c2c1=O
